# Test results reported in patent US8716268B2, “Nitrate esters of corticoid compounds useful as diuretics” (priority 2010, dated 2014).
# Marks after values point to notes of the source that are not given here.
# Experiments:
# [1] = test system: NPR-A; test: NPR-A expression in renal medulla of intact rats (western blotting); format: in vivo; conditions: intact Wistar rats, 24-hour treatment, Dex 1 mg/kg (RU486 100 mg/kg in combination), mean ± SD
# From the text: (§1) To determine the effect of glucocorticoids on diuretic effect and NPR-A expression in renal medulla, 15 intact Wistar rats were randomized to receive Dexamethasone (Dex), vehicle and glucocorticoid receptor (GR) antagonist RU 486.
# [2] = Diuretic effect of Dexamethasone in intact Wistar rats; format: in vivo; conditions: 24-hour treatment, Dex 1 mg/kg (RU486 100 mg/kg in combination), mean ± SD
# From the text: as §1
# [3] = Diuretic effect in rats with decompensated heart failure; format: in vivo, Wistar rats; conditions: 1 mg/kg, 12 hours, mean ± SD
# Experimental: (§2) To determine the effects of corticosteroids on systemic volume in HF, 15 Wistar rats with HF were randomized to receive NCX-1015 (n=5), or prednisolone (n=5), or vehicle (n=5). HF model was accomplished by left anterior descending artery ligation, and then the survived rats were raised for 12 weeks to have decompensated HF (i.e. HF with fluid accumulation). Parameters on urinary volume and urinary sodium in 12 hours were collected.
# [4] = test system: angiotensin II; test: Plasma angiotensin II in rats with decompensated heart failure; format: in vivo, Wistar rats; conditions: 1 mg/kg, 24-hour treatment, mean ± SD
# From the text: (§3) To determine the effects of corticosteroids on RAAS in HF, 15 Wistar rats with HF were randomized to receive NCX-1015 (n=5), or prednisolone (n=5), or vehicle (n=5).
# [5] = test system: NPR-A; test: NPR-A expression in IMCD cells (immunofluorescence); format: cell-based, Wistar rats; set-up: key to NPR-A expression (24 hours) / NPR-A expression (48 hours): + = low; ++ = moderate; +++ = high; conditions: for NPR-A expression (24 hours) / NPR-A expression (48 hours): rat IMCD cells
# From the text: IMCD cells from Wistar rats were isolated and cultured using the method previously described by Ye Q et al.: Endothelin inhibits NPR-A and stimulates eNOS gene expression in rat IMCD cells. Hypertension 41, 675-681 (2003). […] […] The Density of membrane NPR-A in IMCD cells were visualized by immunofluorescence.
# [6] = test system: vasopressin; test: Plasma vasopressin in rats with decompensated heart failure; format: in vivo, Wistar rats; conditions: 1 mg/kg, 24-hour treatment, mean ± SD
# From the text: (§4) To determine the effects of corticosteroids on vasopressin axis in HF, 15 Wistar rats with HF were randomized to receive NCX-1015 (n=5), or prednisolone (n=5), or vehicle (n=5).
# [7] = test system: AT1 receptor; test: AT1 receptor density in the kidney of rats with decompensated heart failure (western blotting); format: in vivo, Wistar rats; conditions: 1 mg/kg, 24-hour treatment, mean ± SD
# From the text: as §3
# [8] = test system: NPR-A; test: NPR-A expression in renal medulla of heart failure rats (western blotting); format: in vivo, Wistar rats
# Experimental: as §2
# [9] = test system: aldosterone; test: Plasma aldosterone in rats with decompensated heart failure; format: in vivo, Wistar rats; conditions: 1 mg/kg, 24-hour treatment, mean ± SD
# From the text: as §3
# [10] = test system: V2 receptor; test: V2 receptor density in the kidney of rats with decompensated heart failure (western blotting); format: in vivo, Wistar rats; conditions: 1 mg/kg, 24-hour treatment, mean ± SD
# From the text: as §4
# [11] = 10^−7 mol/L, membrane NPR-A density
# [12] = 10^−7 mol/L, membrane NPR-A density (Table 3)
# [13] = 10^−6 mol/L, membrane NPR-A density (Table 3)
# [14] = 10^−6 mol/L, membrane NPR-A density
Structure (SMILES),Urinary sodium [3],Urinary volume [3],Plasma angiotensin II [4],Plasma vasopressin [6],AT1 receptor density in the kidney [7],"NPR-A expression in the renal medulla, higher than vehicle-treated rats [8]",Plasma aldosterone [9],V2 receptor density in the kidney [10],further results
"C[C@@H]1C[C@H]2[C@@H]3CCC4=CC(=O)C=C[C@]4(C)[C@@]3(F)[C@@H](O)C[C@]2(C)[C@@]1(O)C(=O)CO [Dex, Dexamethasone]",–,–,–,–,–,–,–,–,NPR-A expression [1]: 132.2 ± 9.7* 100% of vehicle; Urinary sodium [2]: 3.50 ± 0.39 mmol/24 h; Urinary volume [2]: 16.4 ± 2.4 ml/24 h
"C[C@]12C=CC(=O)C=C1CC[C@@H]1[C@@H]2[C@@H](O)C[C@@]2(C)[C@H]1CC[C@]2(O)C(=O)COC(=O)c1ccc(CO[N+](=O)[O-])cc1 [NCX-1015, prednisolone 21-[(4′-nitro-oxymethyl)benzoate]]",1.43 ± 0.15 mmol/12 h,8.8 ± 1.5 ml/12 h,412.20 ± 64.99*^& pg/ml,32.14 ± 5.47 pg/mL,43.14 ± 7.07 % of vehicle,42.8%,0.99 ± 0.09 ng/mL,54.06 ± 16.15 % of vehicle,"Dose needed to attain the same effect of prednisolone on renal NPR-A ([5]; in vitro, fraction of the prednisolone dose): about 1/10; Time needed to attain the same effect of prednisolone on renal NPR-A ([5]; in vitro, fraction of the prednisolone time): about half; NPR-A expression (24 hours) [5, 11]: ++; NPR-A expression (48 hours) [5, 11]: +++"
C[C@]12CCC(=O)C=C1CC[C@@H]1[C@@H]2[C@@H](O)C[C@@]2(C)[C@H]1CC[C@]2(O)C(=O)COC(=O)c1ccc(CO[N+](=O)[O-])cc1 [NCX-1022],–,–,–,–,–,–,–,–,"NPR-A expression (24 hours) [5, 12]: ++; NPR-A expression (48 hours) [5, 12]: +++"
C[C@]12CCC(=O)C=C1CC[C@@H]1[C@@H]2[C@@H](O)C[C@@]2(C)[C@H]1CC[C@]2(O)C(=O)CO [hydrocortisone],–,–,–,–,–,–,–,–,"NPR-A expression (24 hours) [5, 13]: +; NPR-A expression (48 hours) [5, 13]: ++"
C[C@]12C=CC(=O)C=C1CC[C@@H]1[C@@H]2[C@@H](O)C[C@@]2(C)[C@H]1CC[C@]2(O)C(=O)CO [prednisolone],1.08 ± 0.1 mmol/12 h,6.1 ± 0.7 ml/12 h,665.86 ± 113.90^$ pg/ml,45.72 ± 8.35^$ pg/ml,67.06 ± 12.96 % of vehicle,26.5%,1.39 ± 0.26 ng/mL,79.80 ± 9.44^$ % of vehicle,"NPR-A expression (24 hours) [5, 14]: +; NPR-A expression (48 hours) [5, 14]: ++"
